Literature values, collected in patent US12156855B2, “Infusion dosage form of norepinephrine” (Sun Pharmaceutical Industries Limited, priority 2019, dated 2024).

Compound	reported toxicity (heart, ZHANG Cui-ying et al)	reported pharmacological action (Hans Aaron Bates, J. Org. Chem. 1983)
O=Cc1ccc(O)c(O)c1 [3,4 dihydroxybenzaldehyde, 3,4-dihydroxybenzaldehyde]	toxic to the heart	–
Oc1cc2c(cc1O)C(O)CNC2 (centres unmarked) [impurity of Formula I, 1,2,3,4-tetrahydroisoquinoline-4,6,7-triol]	–	acts as false neurotransmitter
